Data on four molecules can be found in ChEMBL document CHEMBL1144623, “Sesterterpene sulfates as isocitrate lyase inhibitors from tropical sponge Hippospongia sp” (Bioorg Med Chem Lett, 2007).

Each structure is given as a SMILES string.

In one test the target is Isocitrate lyase (Magnaporthe oryzae (strain 70-15 / FGSC 8958) (Rice blast fungus)(Pyricularia oryzae), UniProt P0CT06). Nature of the test: Inhibition of Magnaporthe grisea Guy 11 isocitrate lyase.
Isocitrate lyase, sequence (P0CT06 whole entry): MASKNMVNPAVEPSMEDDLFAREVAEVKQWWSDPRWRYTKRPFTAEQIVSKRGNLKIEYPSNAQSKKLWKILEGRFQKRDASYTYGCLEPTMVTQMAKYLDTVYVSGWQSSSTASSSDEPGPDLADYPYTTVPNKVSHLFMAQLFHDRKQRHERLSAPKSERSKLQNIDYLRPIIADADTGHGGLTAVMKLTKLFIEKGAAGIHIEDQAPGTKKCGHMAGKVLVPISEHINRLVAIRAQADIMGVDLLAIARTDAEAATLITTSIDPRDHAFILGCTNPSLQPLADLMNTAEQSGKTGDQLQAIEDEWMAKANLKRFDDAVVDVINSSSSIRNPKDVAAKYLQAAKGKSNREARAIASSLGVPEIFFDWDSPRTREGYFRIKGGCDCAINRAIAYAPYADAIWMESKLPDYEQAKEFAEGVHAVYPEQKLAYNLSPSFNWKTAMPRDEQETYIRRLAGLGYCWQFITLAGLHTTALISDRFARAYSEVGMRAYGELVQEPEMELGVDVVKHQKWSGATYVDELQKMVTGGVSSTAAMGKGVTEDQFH
Settings: not given
Further details: species or system Pyricularia grisea.
Take `C=C1CCC[C@@H]2[C@@](C)(CCC(CCCc3ccoc3)COS(=O)(=O)O)[C@H](C)CC[C@]12C` (some centres undefined) [HALISULFATE 5]: half-maximal inhibition (IC50) required 67.4 µM.

In the case of `O=C(O)CC[N+](=O)[O-]`, the IC50 (commonly the point on the concentration scale where inhibition reaches its midpoint) worked out at 92.4 µM.

Molecule `CC1=CC[C@H]2C(C)(C)CCC[C@]2(C)[C@H]1C[C@@H](OS(=O)(=O)O)[C@H](C)CCC/C(C)=C/Cc1cc(O)ccc1O` [HALISULFATE 1] registered an IC50 of 12.6 µM.

The molecule `CC1=CC[C@H]2C(C)(C)CCC[C@]2(C)[C@H]1C[C@@H](O)[C@H](C)CCC/C(C)=C/Cc1cc(O)ccc1O` [HYDROHALISULFATE 1] gave an IC50 of 15 µM.

Test system in a further test: not listed separately
Nature of the test: Inhibition of Magnaporthe grisea Guy 11 malate synthase. Set-up: species or system Pyricularia grisea.
Settings: not given
In turn, `C=C1CCC[C@@H]2[C@@](C)(CCC(CCCc3ccoc3)COS(=O)(=O)O)[C@H](C)CC[C@]12C` (some centres undefined) [HALISULFATE 5] yielded an IC50 of 1150 µM.

Take `O=C(O)CC[N+](=O)[O-]`: the IC50 turned out to be 1570 µM.

In turn, `CC1=CC[C@H]2C(C)(C)CCC[C@]2(C)[C@H]1C[C@@H](OS(=O)(=O)O)[C@H](C)CCC/C(C)=C/Cc1cc(O)ccc1O` [HALISULFATE 1] yielded a half-inhibitory concentration (IC50) of 227 µM.

In turn, `CC1=CC[C@H]2C(C)(C)CCC[C@]2(C)[C@H]1C[C@@H](O)[C@H](C)CCC/C(C)=C/Cc1cc(O)ccc1O` [HYDROHALISULFATE 1] registered an IC50 of 274 µM.

In the next test the test system is Pyricularia grisea. The test is described as follows: Reduction of appressorium formation in wild type Magnaporthe grisea Guy 11 after 14 hrs. Type of test: functional, organism-based.
Settings: not given
Take `C=C1CCC[C@@H]2[C@@](C)(CCC(CCCc3ccoc3)COS(=O)(=O)O)[C@H](C)CC[C@]12C` (some centres undefined) [HALISULFATE 5]: the Activity entry was “Dose-dependent effect”.

Consider `CC1=CC[C@H]2C(C)(C)CCC[C@]2(C)[C@H]1C[C@@H](OS(=O)(=O)O)[C@H](C)CCC/C(C)=C/Cc1cc(O)ccc1O` [HALISULFATE 1], for which the Activity result was “Dose-dependent effect”.

In the case of `CC1=CC[C@H]2C(C)(C)CCC[C@]2(C)[C@H]1C[C@@H](O)[C@H](C)CCC/C(C)=C/Cc1cc(O)ccc1O` [HYDROHALISULFATE 1], the Activity result was “Dose-dependent effect”.

The next test relates to Pyricularia grisea. The test is described as follows: Growth inhibition of Magnaporthe grisea Guy 11 in presence of glucose after 6 days. Type of test: functional. The conditions noted are these: Guy 11, 144 h.
`C=C1CCC[C@@H]2[C@@](C)(CCC(CCCc3ccoc3)COS(=O)(=O)O)[C@H](C)CC[C@]12C` (some centres undefined) [HALISULFATE 5]: the MIC (commonly the smallest concentration in the dilution series that meets the test's criterion for growth inhibition) is 853 µM.

Consider `O=C(O)CC[N+](=O)[O-]`, for which the MIC was over 3360 µM.

On to `CC1=CC[C@H]2C(C)(C)CCC[C@]2(C)[C@H]1C[C@@H](OS(=O)(=O)O)[C@H](C)CCC/C(C)=C/Cc1cc(O)ccc1O` [HALISULFATE 1], for which the MIC was determined as 701 µM.

Regarding `CC1=CC[C@H]2C(C)(C)CCC[C@]2(C)[C@H]1C[C@@H](O)[C@H](C)CCC/C(C)=C/Cc1cc(O)ccc1O` [HYDROHALISULFATE 1], the MIC was 843 µM.

Another test has as its system Pyricularia grisea. The test is described as follows: Growth inhibition of Magnaporthe grisea Guy 11 in presence of sodium acetate after 6 days. The conditions noted are these: Guy 11, 144 h. Type of test: functional.
For the molecule `C=C1CCC[C@@H]2[C@@](C)(CCC(CCCc3ccoc3)COS(=O)(=O)O)[C@H](C)CC[C@]12C` (some centres undefined) [HALISULFATE 5], the MIC was determined as 107 µM.

For `O=C(O)CC[N+](=O)[O-]`, the MIC is 2940 µM.

Consider `CC1=CC[C@H]2C(C)(C)CCC[C@]2(C)[C@H]1C[C@@H](OS(=O)(=O)O)[C@H](C)CCC/C(C)=C/Cc1cc(O)ccc1O` [HALISULFATE 1], for which the MIC came out at 87.7 µM.

Consider `CC1=CC[C@H]2C(C)(C)CCC[C@]2(C)[C@H]1C[C@@H](O)[C@H](C)CCC/C(C)=C/Cc1cc(O)ccc1O` [HYDROHALISULFATE 1], for which the MIC worked out at 105 µM.
